Measured values published in US10947242B2, “[1,2,4]triazolo[1,5and#8208;A]pyrimidine compounds as PDE2 inhibitors” (Janssen Pharmaceutica NV, priority 2016, dated 2021).
Read-outs that look alike come from different tables or passages of the source.

Tests used:
PDE2A = molecular target: T1, PDE2A (Rattus norvegicus, UniProt Q01062); experiment: PDE2 occupancy by test compounds, ex-vivo autoradiography with [3H]B-17a; assay type: in vivo, Male Wistar rats; conditions: for receptor occupancy at 10 mg/kg: percentage receptor occupancy, ex-vivo autoradiography, striatum; for ED50: read-out: PDE Occupancy ED50
T1 construct: Twenty μm-thick striatal sections were cut; from tissue; host or cells: rat brain, striatal sections
T1 sequence (Q01062 1-928): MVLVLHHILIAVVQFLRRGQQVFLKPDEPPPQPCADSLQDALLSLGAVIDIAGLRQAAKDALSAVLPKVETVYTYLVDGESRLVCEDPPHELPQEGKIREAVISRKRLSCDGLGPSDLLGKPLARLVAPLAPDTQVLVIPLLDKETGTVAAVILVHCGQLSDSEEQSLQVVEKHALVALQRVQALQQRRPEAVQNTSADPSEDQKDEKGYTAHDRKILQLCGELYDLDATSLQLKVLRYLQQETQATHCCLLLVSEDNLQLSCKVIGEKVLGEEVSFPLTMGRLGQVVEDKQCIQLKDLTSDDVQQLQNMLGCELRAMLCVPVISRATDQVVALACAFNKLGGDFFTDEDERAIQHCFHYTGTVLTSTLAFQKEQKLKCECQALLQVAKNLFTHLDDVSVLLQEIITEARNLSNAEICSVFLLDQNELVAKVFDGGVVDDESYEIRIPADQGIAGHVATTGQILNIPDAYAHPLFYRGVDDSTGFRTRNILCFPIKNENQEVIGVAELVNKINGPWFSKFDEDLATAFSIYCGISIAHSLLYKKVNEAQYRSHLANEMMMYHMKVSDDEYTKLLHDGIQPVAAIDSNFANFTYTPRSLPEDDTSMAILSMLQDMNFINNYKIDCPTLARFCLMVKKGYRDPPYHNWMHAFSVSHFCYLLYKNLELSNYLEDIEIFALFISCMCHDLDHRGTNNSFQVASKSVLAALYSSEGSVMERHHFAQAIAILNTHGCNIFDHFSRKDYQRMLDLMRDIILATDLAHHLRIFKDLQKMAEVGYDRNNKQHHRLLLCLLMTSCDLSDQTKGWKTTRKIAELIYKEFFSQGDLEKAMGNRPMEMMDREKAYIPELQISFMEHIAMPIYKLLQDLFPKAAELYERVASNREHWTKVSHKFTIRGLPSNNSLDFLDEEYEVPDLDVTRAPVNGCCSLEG

[1] = molecular target: T2, Human recombinant PDE10A (hPDE10A) (Homo sapiens, UniProt Q9Y233); experiment: In vitro assay PDE10A, human clone (SPA, 3H-cAMP hydrolysis); assay type: biochemical
T2 construct: His tag (inferred from metal chelate purification); made in house; host or cells: Sf9 insect cells (baculovirus)
T2 sequence (Q9Y233 267-1055): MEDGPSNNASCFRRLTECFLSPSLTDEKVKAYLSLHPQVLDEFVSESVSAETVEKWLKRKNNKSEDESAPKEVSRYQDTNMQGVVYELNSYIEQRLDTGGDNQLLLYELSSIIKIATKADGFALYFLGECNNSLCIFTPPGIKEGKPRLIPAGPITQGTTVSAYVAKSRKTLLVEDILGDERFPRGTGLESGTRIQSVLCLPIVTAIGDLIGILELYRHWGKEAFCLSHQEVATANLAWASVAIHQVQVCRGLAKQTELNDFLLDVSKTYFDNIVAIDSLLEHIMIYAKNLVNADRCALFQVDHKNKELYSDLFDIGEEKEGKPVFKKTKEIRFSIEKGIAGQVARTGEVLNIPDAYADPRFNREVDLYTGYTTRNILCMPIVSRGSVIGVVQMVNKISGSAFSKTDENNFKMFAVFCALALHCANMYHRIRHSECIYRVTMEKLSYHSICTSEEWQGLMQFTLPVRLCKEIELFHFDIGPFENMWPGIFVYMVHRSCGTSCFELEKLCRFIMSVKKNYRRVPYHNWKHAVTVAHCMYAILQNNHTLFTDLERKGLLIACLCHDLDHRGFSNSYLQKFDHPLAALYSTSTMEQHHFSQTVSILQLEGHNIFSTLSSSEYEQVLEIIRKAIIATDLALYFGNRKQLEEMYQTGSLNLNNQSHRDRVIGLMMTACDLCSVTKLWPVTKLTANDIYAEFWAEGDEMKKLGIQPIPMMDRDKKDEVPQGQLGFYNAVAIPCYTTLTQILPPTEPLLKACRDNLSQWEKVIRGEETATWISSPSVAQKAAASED
Method in brief: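 Human recombinant PDE10A was expressed in Sf9 cells via baculovirus and incubated with compound in 50 mM Tris pH 7.8, 8.3 mM MgCl2, 1.7 mM EGTA. Substrate was 60 nM cAMP plus 0.008 μCi 3H-cAMP for 60 min at room temperature, read by SPA scintillation counting. Controls used 1% DMSO, and blanks omitted enzyme.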

[2] = molecular target: T3, Human recombinant PDE2A (hPDE2A) (Homo sapiens, UniProt O00408); experiment: In vitro assay PDE2A (SPA, 3H-cGMP hydrolysis); assay type: biochemical; conditions: for Emax: read-out: hPDE2A Emax
T3 construct: His tag (inferred from metal chelate purification); made in house; host or cells: Sf9 insect cells (baculovirus)
T3 sequence (O00408 whole entry): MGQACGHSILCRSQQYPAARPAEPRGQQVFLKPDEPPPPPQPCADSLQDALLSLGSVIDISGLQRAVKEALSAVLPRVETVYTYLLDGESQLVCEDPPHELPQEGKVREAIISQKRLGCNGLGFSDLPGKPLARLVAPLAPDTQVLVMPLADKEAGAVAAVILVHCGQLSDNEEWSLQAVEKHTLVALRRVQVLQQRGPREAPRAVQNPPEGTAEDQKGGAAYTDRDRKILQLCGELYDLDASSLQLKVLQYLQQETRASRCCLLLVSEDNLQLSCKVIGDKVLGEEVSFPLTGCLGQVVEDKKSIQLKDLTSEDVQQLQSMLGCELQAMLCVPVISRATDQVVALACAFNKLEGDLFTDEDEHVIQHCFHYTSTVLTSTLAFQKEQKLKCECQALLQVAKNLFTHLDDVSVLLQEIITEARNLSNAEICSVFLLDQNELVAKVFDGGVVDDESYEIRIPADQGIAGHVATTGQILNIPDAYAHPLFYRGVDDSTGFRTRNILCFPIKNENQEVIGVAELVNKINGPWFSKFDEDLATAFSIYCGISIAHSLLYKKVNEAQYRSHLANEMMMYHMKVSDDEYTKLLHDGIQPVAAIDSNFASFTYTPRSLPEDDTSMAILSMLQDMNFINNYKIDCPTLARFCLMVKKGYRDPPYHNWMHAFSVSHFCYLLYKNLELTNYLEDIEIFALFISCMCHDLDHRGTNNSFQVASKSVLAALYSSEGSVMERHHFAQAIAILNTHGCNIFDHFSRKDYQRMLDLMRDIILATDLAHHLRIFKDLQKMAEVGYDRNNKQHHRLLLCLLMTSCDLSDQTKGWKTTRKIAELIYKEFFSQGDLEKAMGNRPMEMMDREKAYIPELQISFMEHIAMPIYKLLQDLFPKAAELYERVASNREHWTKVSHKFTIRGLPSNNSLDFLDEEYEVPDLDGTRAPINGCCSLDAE

[3] = molecular target: T4, Human recombinant PDE3A (hPDE3A) (Homo sapiens, UniProt Q14432); experiment: In vitro assay PDE3A (SPA, 3H-cAMP hydrolysis); assay type: biochemical; conditions: for IC50: hPDE3B pIC50, read-out: pIC50 (converted); for Emax: read-out: hPDE3B Emax, read-out: Emax;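 for all read-outs here: the method names PDE3A and the table heading PDE3B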
T4 construct: purchased Scottish Biomedical; host or cells: Sf9 insect cells
T4 sequence (Q14432 whole entry): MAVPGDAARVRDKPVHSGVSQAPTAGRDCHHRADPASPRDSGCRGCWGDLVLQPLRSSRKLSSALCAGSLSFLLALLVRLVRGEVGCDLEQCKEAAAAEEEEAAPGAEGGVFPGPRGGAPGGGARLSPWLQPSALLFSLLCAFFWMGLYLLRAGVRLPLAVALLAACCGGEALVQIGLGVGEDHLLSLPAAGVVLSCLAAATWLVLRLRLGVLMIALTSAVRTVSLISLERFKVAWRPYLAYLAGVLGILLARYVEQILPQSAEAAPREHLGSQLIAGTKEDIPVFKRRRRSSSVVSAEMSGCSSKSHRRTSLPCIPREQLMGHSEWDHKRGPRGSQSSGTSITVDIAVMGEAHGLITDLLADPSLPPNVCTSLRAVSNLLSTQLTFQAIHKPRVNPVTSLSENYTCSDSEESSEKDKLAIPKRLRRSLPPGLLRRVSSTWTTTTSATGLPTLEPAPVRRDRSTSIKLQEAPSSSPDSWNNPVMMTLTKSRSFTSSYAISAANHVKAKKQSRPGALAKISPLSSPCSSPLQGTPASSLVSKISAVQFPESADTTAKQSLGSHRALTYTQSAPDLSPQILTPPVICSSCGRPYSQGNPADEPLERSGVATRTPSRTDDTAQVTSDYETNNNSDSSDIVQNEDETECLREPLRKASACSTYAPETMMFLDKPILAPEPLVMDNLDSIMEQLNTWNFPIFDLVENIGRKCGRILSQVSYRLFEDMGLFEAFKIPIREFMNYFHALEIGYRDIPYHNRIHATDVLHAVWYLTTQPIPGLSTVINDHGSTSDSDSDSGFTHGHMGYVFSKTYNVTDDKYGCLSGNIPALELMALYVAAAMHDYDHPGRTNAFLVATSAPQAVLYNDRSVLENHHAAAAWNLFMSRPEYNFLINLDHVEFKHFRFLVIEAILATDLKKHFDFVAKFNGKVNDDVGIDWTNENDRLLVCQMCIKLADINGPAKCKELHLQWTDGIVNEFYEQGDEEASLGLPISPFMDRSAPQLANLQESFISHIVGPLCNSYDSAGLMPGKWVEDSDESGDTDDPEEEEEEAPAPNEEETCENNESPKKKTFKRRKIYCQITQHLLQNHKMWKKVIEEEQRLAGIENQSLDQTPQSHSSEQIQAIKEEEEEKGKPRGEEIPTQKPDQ
Method in brief: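 Human PDE3A, cloned from brain, as partially purified Sf9 lysate. Substrate 0.4 μM cAMP plus [3H]-cAMP (2.4 μCi/ml final) in 50 mM Tris pH 7.8, 8.3 mM MgCl2, 1.7 mM EGTA, 60 min at room temperature, 1% DMSO final. Hydrolysis read by SPA scintillation counting against no-enzyme blanks and DMSO controls.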

[4] = human clone (h), default, read-out: hPDE10A2 Emax
[5] = human clone (h), default, read-out: hPDE10A2 pIC50 (converted)
[6] = human recombinant PDE2A, 10 μM cGMP substrate, read-out: hPDE2A pIC50 (converted)
[7] = read-out: hPDE2A pIC50 (converted)
[8] = human clone by default (no (r) mark), read-out: hPDE10A2 or rPDE10A2 Emax
[9] = human clone by default (no (r) mark), read-out: hPDE10A2 or rPDE10A2 pIC50 (converted)

Compound	receptor occupancy at 10 mg/kg (PDE2A; po, route PO (oral)) [%]	ED50 (PDE2A; route PO (oral), drug dose producing 50% receptor occupancy) [mg/kg]	Emax [1, 4] [%]	IC50 [1, 5] [nM]	melting point [°C]	IC50 [2, 6] [nM]	Emax ([2]; human recombinant PDE2A) [%]	Emax [2] [%]	IC50 [2, 7] [nM]	IC50 [3] [nM]	Emax [3] [%]	receptor occupancy at 10 mg/kg (PDE2A; sc, route SC (subcutaneous)) [%]	receptor occupancy at 10 mg/kg (PDE2A; route PO (oral)) [%]	Emax [1, 8] [%]	IC50 [1, 9] [nM]	IC50 ([2]; hPDE2A pIC50) [nM]	IC50 ([2]; hPDE2A pIC50, human recombinant PDE2A, 10 μM cGMP substrate) [nM]	ED50 (PDE2A; po) [mg/kg]
COc1c(C)cc(C(=O)N2CC[C@@H](C)[C@H](c3cc(C(F)F)nc4ncnn34)C2)cc1C [Compound 77]	54	5.67	98	83.2	177.37	0.457	101	101	0.457	676	96							
Cc1nc2ccc(C(=O)N3CC[C@@H](C)[C@H](c4cc(C(F)F)nc5ncnn45)C3)cc2o1 [Compound 127]	34		99	25.7	139.13	2.24	99	99	2.24	437	94	53						
Cc1cnc(C(F)(F)F)cc1C(=O)N1CC[C@@H](C)[C@H](c2cc(C(F)F)nc3ncnn23)C1 [Compound 52]	2		76	3020	228.39	13.8	101	101	13.8	> 10000	22							
O=C(c1ccc2occc2c1)N1[C@H]2CC[C@H](c3cc(C(F)F)nc4ncnn34)[C@@H]1CC2 [Compound 353]					230.66			99	3.39	4790	69		15	94	977			
Cc1cc([C@@H]2CN(C(=O)c3cc(C4CC4)ncc3F)CC[C@H]2C)n2ncnc2n1 [Compound 224]	-6				153.14			100	3.02	1050	87			99	70.8			
Cc1cc(C)cc(C(=O)N2CC[C@@H](C)[C@H](c3cc(C(F)F)nc4ncnn34)C2)c1 [Compound 123]	4		99	91.2	203.87			99		1620	87					1.95	1.95	
Cn1ccc2cc(C(=O)N3[C@H]4CC[C@H](c5cc(C(F)F)nc6ncnn56)[C@@H]3CC4)ccc21 [Compound 295]					178.8			101	0.49	977	94		71	98	245			5.63
COc1cc(C(=O)N2CC[C@@H](C)[C@H](c3cc(C(F)F)nc4ncnn34)C2)ccc1C1CC1 [Compound 118]			99	74.1	179.82	1.66	101	101	1.66	955	92							
Cc1cc([C@@H]2CN(C(=O)c3cc(Cl)ncc3Cl)CC[C@H]2C)n2ncnc2n1 [Compound 271]			95	162	247.4			99	2.95	7410	61			95	162			

Now from value to compound, other results behind:

receptor occupancy at 10 mg/kg (PDE2A; po, route PO (oral)) [%]	ED50 (PDE2A; route PO (oral), drug dose producing 50% receptor occupancy) [mg/kg]	Emax [1, 4] [%]	IC50 [1, 5] [nM]	melting point [°C]	IC50 [2, 6] [nM]	Emax ([2]; human recombinant PDE2A) [%]	Emax [2] [%]	IC50 [2, 7] [nM]	IC50 [3] [nM]	Emax [3] [%]	receptor occupancy at 10 mg/kg (PDE2A; sc, route SC (subcutaneous)) [%]	Compound	receptor occupancy at 10 mg/kg (PDE2A; route PO (oral)) [%]	Emax [1, 8] [%]	IC50 [1, 9] [nM]	IC50 ([2]; hPDE2A pIC50) [nM]	IC50 ([2]; hPDE2A pIC50, human recombinant PDE2A, 10 μM cGMP substrate) [nM]	ED50 (PDE2A; po) [mg/kg]
0		96	135	193.85	2.45	100	100	2.45	1740	87		COc1cc(C(=O)N2CC[C@@H](C)[C@H](c3cc(C(F)F)nc4ncnn34)C2)ccc1Cl [Compound 130]						
0		92	105	177.6	1.02	100	100	1.02	> 1000	46		C[C@@H]1CCN(C(=O)c2ccc(Cl)c(C3CC3)c2)C[C@H]1c1cc(C(F)F)nc2ncnn12 [Compound 72]						
0		99	21.4	273.02	0.891	100	100	0.891	389	98		C[C@@H]1CCN(C(=O)c2ccc3cc[nH]c3c2)C[C@H]1c1cc(C(F)F)nc2ncnn12 [Compound 106]						
-18		97	224	162.07	12.9	100	100	12.9	3890	74		C[C@@H]1CCN(C(=O)c2ccc(F)c(C(F)F)c2)C[C@H]1c1cc(C(F)F)nc2ncnn12 [Compound 191]						
		99	38	188.75	0.977	100	100	0.977	1050	92		C[C@@H]1CCN(C(=O)c2ccc(Cl)c(Cl)c2)C[C@H]1c1cc(C(F)F)nc2ncnn12 [Compound 111]						
